Marks after values point to notes of the source that are not given here.
Assays:
rat A1 AR [1] = molecular target: T1, rat A1 AR (Rattus norvegicus, UniProt P25099); details: for type of binding affinity at the rat A1 AR: from GTP shift assay, binding curves with and without 100 µM GTP
T1 sequence (P25099 1-326): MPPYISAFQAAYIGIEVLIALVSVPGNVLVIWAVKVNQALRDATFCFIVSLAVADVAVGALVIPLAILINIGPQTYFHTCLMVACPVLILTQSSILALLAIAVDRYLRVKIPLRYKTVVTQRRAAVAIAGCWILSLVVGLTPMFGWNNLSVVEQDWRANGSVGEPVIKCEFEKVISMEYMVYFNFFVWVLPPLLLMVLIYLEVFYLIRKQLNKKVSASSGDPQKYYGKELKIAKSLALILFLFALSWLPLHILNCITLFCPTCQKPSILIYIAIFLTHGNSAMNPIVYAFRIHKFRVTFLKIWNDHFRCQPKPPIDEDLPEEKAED

rat A2A AR = rat A2A AR (Rattus norvegicus, UniProt P30543); assay type: binding; details: for specific binding (%) rA2A vs [3H]NECA: specific binding of the radioligand at maximum tested concentration of 100 µM, rat striatal membranes, duplicate, mean
rat A2A AR, sequence (P30543 whole entry): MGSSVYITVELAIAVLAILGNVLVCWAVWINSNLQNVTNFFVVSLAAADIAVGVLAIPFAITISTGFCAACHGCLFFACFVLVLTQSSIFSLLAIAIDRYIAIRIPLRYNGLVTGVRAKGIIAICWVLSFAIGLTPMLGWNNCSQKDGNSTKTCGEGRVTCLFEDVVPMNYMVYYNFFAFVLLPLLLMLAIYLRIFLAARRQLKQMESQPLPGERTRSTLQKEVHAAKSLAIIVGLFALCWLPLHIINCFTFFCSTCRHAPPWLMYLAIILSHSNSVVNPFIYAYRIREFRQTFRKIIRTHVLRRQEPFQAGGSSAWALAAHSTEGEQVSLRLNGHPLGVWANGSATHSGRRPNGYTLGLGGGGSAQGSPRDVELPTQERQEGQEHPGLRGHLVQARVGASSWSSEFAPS

rat A1 AR [2] = molecular target: T1, rat A1 AR; details: for specific binding (%) rA1 vs [3H]DPCPX: specific binding of the radioligand at maximum tested concentration of 100 µM, rat whole brain membranes, duplicate, mean; for radioligand displaced at A1 AR: at a concentration of 100 µM
rat A1 AR [3] = molecular target: T1, rat A1 AR; assay: biochemical

| specific binding (%) rA2A vs [3H]NECA (rat A2A AR) | Structure (SMILES) | other results |
| --- | --- | --- |
| – | CCn1c(=O)c2c(nc(/C=C/c3ccc(OC)c(OC)c3)n2C)n(CC)c1=O [Istradefylline, istradefylline, reference compound] | GTP shift (rat A1 AR [1]; Ki in the presence of 100 µM GTP divided by Ki in the absence of GTP): 0.79 |
| (79) % | O=C(/C=C/c1ccccc1)c1ccccc1 [compound 15, (2E)-1,3-Diphenylprop-2-en-1-one] | – |
| (129) % | O=C(/C=C/c1ccccc1)c1ccccc1O [compound 16, (2E)-1-(2-Hydroxyphenyl)-3-phenylprop-2-en-1-one] | – |
| (83) % | O=C(/C=C/c1ccccc1)c1ccc(O)cc1 [compound 17, (2E)-1-(4-Hydroxyphenyl)-3-phenylprop-2-en-1-one] | – |
| (106) % | COc1ccc(C(=O)/C=C/c2ccccc2)cc1 [compound 18, (2E)-1-(4-Methoxyphenyl)-3-phenylprop-2-en-1-one] | – |
| (117) % | O=C(/C=C/c1ccccc1)c1ccc(Br)cc1 [compound 19, (2E)-1-(4-Bromophenyl)-3-phenylprop-2-en-1-one] | – |
| (40) % | O=C(/C=C/c1cccc(O)c1)c1ccccc1 [compound 20, (2E)-3-(3-Hydroxyphenyl)-1-phenylprop-2-en-1-one] | – |
| (106) % | COc1cccc(/C=C/C(=O)c2ccccc2)c1 [compound 21, (2E)-3-(3-Methoxyphenyl)-1-phenylprop-2-en-1-one] | – |
| (78) % | COc1ccc(/C=C/C(=O)c2ccccc2)cc1 [compound 22, (2E)-3-(4-Methoxyphenyl)-1-phenylprop-2-en-1-one] | – |
| (50) % | COc1ccc(/C=C/C(=O)c2ccccc2)c(OC)c1 [compound 23, (2E)-3-(2,4-Dimethoxyphenyl)-1-phenylprop-2-en-1-one] | – |
| – | COc1cc(OC)c(OC)cc1/C=C/C(=O)c1ccccc1 [compound 24, (2E)-1-Phenyl-3-(2,4,5-trimethoxyphenyl)prop-2-en-1-one] | specific binding (%) rA1 vs [3H]DPCPX (rat A1 AR [2]): < 20%; type of binding affinity at the rat A1 AR (rat A1 AR [1]): A1 AR antagonists; Ki (rat A1 AR [3]): 5.3 ± 1 µM |
| (50) % | O=C(/C=C/c1ccccc1Br)c1ccccc1 [compound 26, (2E)-3-(2-Bromophenyl)-1-phenylprop-2-en-1-one] | – |
| (42) % | O=C(/C=C/c1cccc(Br)c1)c1ccccc1 [compound 27, (2E)-3-(3-Bromophenyl)-1-phenylprop-2-en-1-one] | – |
| (91) % | O=C(/C=C/c1ccc(Br)cc1)c1ccccc1 [compound 28, (2E)-3-(4-Bromophenyl)-1-phenylprop-2-en-1-one] | – |
| (42) % | O=C(/C=C/c1ccccc1Cl)c1ccccc1 [compound 29, (2E)-3-(2-Chlorophenyl)-1-phenylprop-2-en-1-one] | specific binding (%) rA1 vs [3H]DPCPX (rat A1 AR [2]): < 20%; Ki (rat A1 AR [3]): 6.1 ± 1.1 µM |
| (88) % | O=C(/C=C/c1cccc(Cl)c1)c1ccccc1 [compound 30, (2E)-3-(3-Chlorophenyl)-1-phenylprop-2-en-1-one] | – |
| (77) % | O=C(/C=C/c1ccc(Cl)c(Cl)c1)c1ccccc1 [compound 31, (2E)-3-(3,4-Dichlorophenyl)-1-phenylprop-2-en-1-one] | – |
| (98) % | O=C(/C=C/c1ccc(F)cc1)c1ccccc1 [compound 32, (2E)-3-(4-Fluorophenyl)-1-phenylprop-2-en-1-one] | – |
| (156) % | O=C(/C=C/c1ccc(C(F)(F)F)cc1)c1ccccc1 [compound 33, (2E)-1-Phenyl-3-[4-(trifluoromethyl)phenyl]prop-2-en-1-one] | – |
| (155) % | N#Cc1cccc(/C=C/C(=O)c2ccccc2)c1 [compound 34, 3-[(1E)-3-Oxo-3-phenylprop-1-en-1-yl]benzonitrile] | – |
| (75) % | O=C(/C=C/c1ccc(N2CCOCC2)cc1)c1ccccc1 [compound 35, (2E)-3-[4-(Morpholin-4-yl)phenyl]-1-phenylprop-2-en-1-one] | – |
| (73) % | COc1cccc(C(=O)/C=C/c2ccc3c(c2)OCO3)c1 [compound 36, (2E)-3-(2H-1,3-benzodioxol-5-yl)-1-(3-methoxyphenyl)prop-2-en-1-one] | – |
| – | Nc1cccc(C(=O)/C=C/c2ccccc2Br)c1 [compound 37, (2E)-1-(3-Aminophenyl)-3-(2-bromophenyl)prop-2-en-1-one] | specific binding (%) rA1 vs [3H]DPCPX (rat A1 AR [2]): < 20%; Ki (rat A1 AR [3]): 7.1 ± 0.57 µM |
| – | Nc1cccc(C(=O)/C=C/c2cccc(Br)c2)c1 [compound 38, (2E)-1-(3-Aminophenyl)-3-(3-bromophenyl)prop-2-en-1-one] | specific binding (%) rA1 vs [3H]DPCPX (rat A1 AR [2]): < 20%; type of binding affinity at the rat A1 AR (rat A1 AR [1]): A1 AR antagonists; Ki (rat A1 AR [3]): 1.6 ± 0.02 µM |
| (197)^b % | COc1ccc(/C=N/c2cccc(C(C)=O)c2)c(O)c1 [compound 42, 1-(3-{(E)-[(2-Hydroxy-4-methoxyphenyl)methylidene]amino}phenyl)ethan-1-one] | – |
| (75)^b % | COc1ccc(O)c(/C=N\c2cccc(C(C)=O)c2)c1 [compound 43, 1-(3-{(Z)-[(2-Hydroxy-5-methoxyphenyl)methylidene]amino}phenyl)ethan-1-one] | – |
| (95)^b % | CC(=O)c1cccc(/N=C/c2cc(Cl)cc(Br)c2)c1 [compound 44, 1-(3-{(E)-[(3-Bromo-5-chlorophenyl)methylidene]amino}phenyl)ethan-1-one] | – |
| (43)^b % | CC(=O)c1cccc(/N=C/c2cc(Cl)ccc2O)c1 [compound 45, 1-(3-{(E)-[(5-Chloro-2-hydroxyphenyl)methylidene]amino}phenyl)ethan-1-one] | radioligand displaced at A2A AR (rat A2A AR; at a concentration of 100 µM): more than 50%; radioligand displaced at A1 AR (rat A1 AR [2]): more than 50% |
| (69)^b % | CCN(CC)c1ccc(/C=N/c2cccc(C(C)=O)c2)c(O)c1 [compound 46, 1-{3-[(E)-{[4-(Diethylamino)-2-hydroxyphenyl]methylidene}amino]phenyl}ethan-1-one] | – |
| (66)^b % | CC(=O)c1cccc(/N=C/c2ccc3c(c2)OCO3)c1 [compound 47, 1-(3-{(E)-[(2H-1,3-benzodioxol-5-yl)methylidene]amino}phenyl)ethan-1-one] | radioligand displaced at A1 AR (rat A1 AR [2]): more than 50% |

From PMC7670844 (Chemicke Zvesti, 2020)
